{
  "source": "patent US4894389A",
  "about": "“Novel aminoalkyl-substituted heterocyclic sulfur compounds” (Merrell Dow Pharmaceuticals Inc., priority 1987, dated 1990)",
  "key": {"[1]": {"target": "T1, dopamine-β-hydroxylase (DBH) (Bos taurus, UniProt P15101)", "T1 sequence (P15101 1-610)": "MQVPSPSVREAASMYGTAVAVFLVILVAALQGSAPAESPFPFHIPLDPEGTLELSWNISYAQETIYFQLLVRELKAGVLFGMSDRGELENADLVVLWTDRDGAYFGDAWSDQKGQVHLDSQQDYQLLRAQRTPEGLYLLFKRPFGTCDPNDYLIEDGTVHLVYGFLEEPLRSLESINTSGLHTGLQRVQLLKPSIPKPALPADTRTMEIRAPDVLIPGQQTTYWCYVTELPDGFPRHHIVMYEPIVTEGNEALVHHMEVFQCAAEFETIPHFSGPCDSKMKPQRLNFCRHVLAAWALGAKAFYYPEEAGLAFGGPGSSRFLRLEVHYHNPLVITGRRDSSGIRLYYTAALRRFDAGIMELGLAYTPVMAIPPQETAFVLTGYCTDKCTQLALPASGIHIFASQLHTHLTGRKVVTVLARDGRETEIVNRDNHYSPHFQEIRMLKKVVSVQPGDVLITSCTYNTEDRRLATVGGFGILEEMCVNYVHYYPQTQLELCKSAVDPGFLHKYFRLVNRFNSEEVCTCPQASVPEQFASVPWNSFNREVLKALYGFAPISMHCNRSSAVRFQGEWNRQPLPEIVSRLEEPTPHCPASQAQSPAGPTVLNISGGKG", "assay": "DBH inhibition kinetics: conversion of tyramine to octopamine, HPLC with fluorometric quantitation", "assay_type": "biochemical", "conditions": "read-out: inhibition constant (ki)", "from_the_text": "The DBH inhibitory properties of the compounds of this invention can also readily be determined […] by standard and well known procedures for assaying the conversion of tyramine to octopamine in the presence of DBH, such as the procedure set forth by Feilchenfeld, N. B., Richter, H. W. and Waddell, W. H. in \"Time-Resolved Assay of Dopamine Beta Hydroxylase Activity Utilizing High-Pressure Liquid Chromatography\", Analyt. Biochem., 122, 124-128 (1982). Determination of the kinetics of DBH inhibition is exemplified by a procedure where the enzyme-assisted conversion of tyramine to octopamine is determined by incubating varying concentrations of test compound with constant concentrations of substrate, enzyme (DBH), molecular oxygen, an electron donor such as ascorbate and the necessary cofactors for the enzyme at optimal temperature and pH. After incubation, the product is separated out by high-performance liquid chromatography and quantitated fluorometrically, from which an inhibition constant (ki) can readily be calculated."}, "[2]": {"test_system": "spontaneously hypertensive rats", "assay": "Antihypertensive activity in vivo: continuous recording of arterial blood pressure in conscious spontaneously hypertensive rats", "conditions": "ip", "procedure": "For instance, test compounds are administered intraperitoneally (ip) to unanesthetized, spontaneously hypertensive rats and the arterial blood pressure is monitored continuously."}, "[3]": {"target": "T1, dopamine-β-hydroxylase (DBH)", "assay": "Time-dependent DBH inhibitory activity in vitro (tyramine substrate, oxygen uptake by polarographic electrode)", "assay_type": "biochemical", "procedure": "Since DBH is a major enzyme in the synthetic pathway of norepinephrine (NE), the presence of a DBH inhibitor would act to decrease the amount of NE produced, and thereby have an antihypertensive effect. The DBH inhibitory properties of the compounds of this invention can readily be determined by standard and well-known procedures. […] The test compound is added at the desired concentration, and the system is incubated. Aliquots are taken at different time intervals and DBH activity is measured using tyramine as the substrate. The reaction is followed by measuring oxygen uptake using a polarographic electrode and an oxygen monitor by the method of S. May, et al., J. Biol. Chem., 256, 2258 (1981)."}},
  "note": "pKi: −log10 of the molar value.",
  "data": [
    {"molecule": "1,3-Dithiolane-2-ethanamine [Example 2]", "values": [
      {"measurement": "pKi", "setting": "[1]", "value": 4.96}
    ]},
    {"molecule": "NC/C=C1/CCCS1", "note": "[Example 6]", "values": [
      {"measurement": "in vivo antihypertensive activity", "setting": "[2]", "value": "active as an in vivo antihypertensive agent"}
    ]},
    {"molecule": "NCC=C1SCCS1", "note": "[compound 1]", "values": [
      {"measurement": "activity in the time-dependent DBH assay", "setting": "[3]", "value": "most active compound of the compounds tested"}
    ]}
  ]
}
